The values that follow come from US10407430B2, “Janus kinase 1 selective inhibitor and pharmaceutical use thereof” (YANG JI CHEMICAL CO., LTD., priority 2015, dated 2019).

Data set [1] has as its target T1, Human TYK2 (Homo sapiens, UniProt P29597).
T1 construct: purchased Millipore, Germany
The experiment in a line: In-vitro kinase inhibition test, TYK2. In kind it is biochemical. The note with it: read-out: TYK2 kinase-phosphorylation inhibitory level (% inhibition).
Procedure: Human-derived JAK1, JAK2, JAK3 and TYK2 (Millipore, Germany) were used as kinases. Each kinase was diluted with an appropriate buffer as described below, and then mixed with reaction reagents.
3-morpholinopropane-1-sulfonic acid (MOPS) and EDTA were dissolved in deionized water at a concentration of 20 mM and 1 mM, respectively, and then 100 μL of β-mercaptoethanol, 10 μL of Brij-35™, 5 mL of glycerol, and 100 mg of bovine serum albumin (BSA), each per 100 mL of the solution, were added to the solution, thereby preparing a dilution buffer for JAK2, JAK3, and TYK2.
Each compound was dissolved in a 100%-DMSO solution at a concentration of about 50 μM. This prepared solution was reacted with reaction reagents in each well of a 96-well plate until a final concentration of the compound reached 1 μM. A detailed experimental method for each kinase is as follows.
After reaction for about 40 minutes at room temperature, the reaction was stopped by adding 5 uL of a 3% (v/v) phosphoric acid solution.
The inhibitory levels (% inhibition) represent a percentage of reduction in phosphorylation activity in each test group with respect to the phosphorylation activity of a corresponding kinase in a negative control group lacking any of the compounds synthesized in the examples. % inhibition=[(Scintillation value of Test compound non-treatment group−Scintillation value of Test compound treatment group)/(Scintillation value of Test compound non-treatment group)]×100

The conditions of data set [2]: comparative drug (EMA), cited from earlier work.
Data set [3] can be described thus: Pharmacokinetic test, oral or intravenous administration. Type of data set: in vivo. The note with it: mouse, blood, 20 mg/kg, mice. On the procedure: A dose of the compound was about 20 mg/kg, which was orally or intraveneously administered one time, followed by blood collection from the jugular veins of three mice at each of blood sampling intervals, i.e., 0, 0.25 (15 min), 0.5 (30 min), 1, 2, 4, 6, 12, and 24 hours from the administration, and measuring a drug concentration.

Counter-ions that a name gives are not always drawn. Like-named read-outs stand apart in the source and are kept apart here.

One may read the inhibition as the change of the read-out against control, counted positive when it falls. A word on the Cmax: it is the maximum level reached in the sampled fluid or tissue. In general, bioavailability refers to dose-corrected exposure relative to a reference, in per cent. By AUC(0-t) is commonly meant the area under the concentration-time curve up to a stated or last time point. One may read the half-life as the time in which the quantity being followed falls by half. Read a high half-life as slow decline. As a reminder, the Tmax is the time from dosing to the highest level.

T1 sequence (P29597 whole entry): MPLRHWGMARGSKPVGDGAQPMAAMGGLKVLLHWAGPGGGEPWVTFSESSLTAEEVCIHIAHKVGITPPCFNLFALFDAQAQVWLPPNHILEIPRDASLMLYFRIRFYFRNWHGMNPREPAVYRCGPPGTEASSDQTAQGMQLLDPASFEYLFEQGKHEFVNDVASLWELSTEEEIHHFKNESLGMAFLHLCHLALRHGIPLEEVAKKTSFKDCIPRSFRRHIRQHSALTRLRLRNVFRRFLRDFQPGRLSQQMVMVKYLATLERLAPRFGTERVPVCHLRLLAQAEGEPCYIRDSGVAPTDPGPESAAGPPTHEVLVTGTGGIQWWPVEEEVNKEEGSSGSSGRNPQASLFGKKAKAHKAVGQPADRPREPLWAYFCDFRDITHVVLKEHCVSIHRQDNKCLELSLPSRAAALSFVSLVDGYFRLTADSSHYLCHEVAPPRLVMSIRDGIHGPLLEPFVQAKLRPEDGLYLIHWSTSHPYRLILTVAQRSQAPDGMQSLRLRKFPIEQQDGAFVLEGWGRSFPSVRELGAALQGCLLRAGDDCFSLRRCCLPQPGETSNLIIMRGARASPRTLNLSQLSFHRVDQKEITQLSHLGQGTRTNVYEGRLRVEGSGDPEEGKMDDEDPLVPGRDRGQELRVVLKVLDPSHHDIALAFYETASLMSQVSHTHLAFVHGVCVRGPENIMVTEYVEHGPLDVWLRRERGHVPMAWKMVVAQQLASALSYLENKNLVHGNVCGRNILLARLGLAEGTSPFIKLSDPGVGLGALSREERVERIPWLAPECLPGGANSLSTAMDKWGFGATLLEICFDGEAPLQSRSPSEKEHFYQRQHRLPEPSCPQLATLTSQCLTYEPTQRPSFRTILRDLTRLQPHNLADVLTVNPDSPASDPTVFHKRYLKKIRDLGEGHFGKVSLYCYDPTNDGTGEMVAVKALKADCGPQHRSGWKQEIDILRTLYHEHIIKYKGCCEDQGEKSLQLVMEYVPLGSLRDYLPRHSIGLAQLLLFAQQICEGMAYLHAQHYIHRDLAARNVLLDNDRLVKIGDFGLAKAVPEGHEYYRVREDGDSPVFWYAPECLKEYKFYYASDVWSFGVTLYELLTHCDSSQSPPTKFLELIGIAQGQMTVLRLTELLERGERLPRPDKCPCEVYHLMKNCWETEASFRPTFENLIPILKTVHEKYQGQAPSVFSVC

For the compound `CC1CCN(C(=O)CC#N)CC1N(C)c1ncnc2[nH]ccc12` (stereo not drawn) [tofacitinib citrate, 3-{4-methyl-3-[methyl-(7H-pyrrolo[2,3-d]pyrimidine-4-yl)-amino]-piperidine-1-yl}-3-oxo-propionitrile], the inhibition at 1 µM in data set [1] is 100%. In data set [2] (intravenous injection, 5 mg/kg), the AUC0→t is 3.18 µg·h/mL and the t1/2 was 2.8 h. In data set [2] (oral administration, 10 mg/kg), the AUC0→t is 2.75 µg·h/mL, the Cmax was 2.4 µg/mL, the bioavailability is 43.3% and the t1/2 was 2.0 h.

In data set [3] (intravenous injection), `CN(c1ncnc2[nH]ccc12)[C@@H]1CCN(C(=O)CC#N)C1.Cl` [Example 51, (R)-3-(3-(methyl(7H-pyrrolo[2,3-d]pyrimidine-4-yl)amino)pyrrolidine-1-yl)-3-oxopropanenitrile hydrochloride] showed an exposure AUC(0-t) of 18.9 µg·h/mL, a Cmax of 15.5 µg/mL and a half-life of 1.97 h. In data set [3] (oral administration), the AUC(0-t) stood at 13.1 µg·h/mL, the concentration peaked (Cmax) at 4.53 µg/mL, the Tmax amounted to 0.5 h and the bioavailability was 69.1%. For the same compound, the half-life in data set [3] (oral administration) was 2.78 h.
